Where a name gives a salt, the structure may show the parent alone. Read-outs that look alike come from different tables or passages of the source.
Columns and labels:
CDK5/GST-p25 = target: T1, CDK5/GST-p25 (Homo sapiens, UniProt Q00535); assay: Inhibition of CDK5/GST-p25 kinase activity (ELISA with time-resolved fluorescence readout); format: biochemical
T1 construct: The final construct, encoding for full-length human CDK5; made in house; host or cells: Sf21 insect cells (baculovirus co-infection)
T1 sequence (Q00535 whole entry): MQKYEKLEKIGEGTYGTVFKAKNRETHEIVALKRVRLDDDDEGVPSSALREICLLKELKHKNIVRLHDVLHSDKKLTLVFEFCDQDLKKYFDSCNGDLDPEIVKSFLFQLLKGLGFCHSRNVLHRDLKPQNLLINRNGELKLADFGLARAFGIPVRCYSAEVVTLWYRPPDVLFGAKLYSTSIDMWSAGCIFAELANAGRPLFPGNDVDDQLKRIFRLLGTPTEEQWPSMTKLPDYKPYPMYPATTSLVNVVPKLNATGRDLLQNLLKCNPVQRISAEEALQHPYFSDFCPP
T1 sequence (Q15078 108-307 partner limits assumed): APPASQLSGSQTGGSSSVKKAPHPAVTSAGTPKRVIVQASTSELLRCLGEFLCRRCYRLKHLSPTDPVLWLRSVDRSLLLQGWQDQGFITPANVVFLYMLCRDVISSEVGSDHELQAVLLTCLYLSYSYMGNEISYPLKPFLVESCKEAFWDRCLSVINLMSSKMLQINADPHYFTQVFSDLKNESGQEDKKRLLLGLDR
Procedure: Two recombinant baculoviral constructs were created, one encoding for human CDK5 and the other encoding for human p25 with an amino-terminal glutathione-S-transferase (GST) tag. PCR amplification of full-length CDK5 was performed utilizing human brain cDNA as a template and Pfu Turbo polymerase (Strategene). The PCR product from this reaction was subcloned into the baculoviral expression vector pFASTBAC1 (Gibco/BRL). The final construct, encoding for full-length human CDK5 (base pairs 25-903 of GenBank Accession #NM_004935), is 292 amino acids long with a predicted MW of 33.3 kDa.
For p25, the active truncated form of p35, amino acids 108-307 were PCR-amplified from human fetal brain cDNA (Clontech QUICK-Clone cDNA) using the Advantage 2 PCR system (Clontech). The PCR product was subcloned into the baculoviral transfer vector pFBGSTP (an engineered derivative of the baculoviral transfer vector pFASTBAC1). The final baculoviral construct encodes for base pairs 419-1021 of GenBank Accession #NM_003885, with an amino-terminal GST tag. The expressed GST-p25 is 444 amino acids long with a predicted MW of 50.3 kDa.
The CDK5/GST-p25 complex was generated by coexpression. Sf21 cells were cultured in TNM-FHS media at a density of 1.5×10^6 cells/mL and infected with each recombinant virus at MOI values of 5 (for CDK5) and 10 (for GST-p25). The cells were harvested 40 h after infection. For purification, the 100,000×g supernatant solution was used. Expression was confirmed by running samples on SDS-PAGE, followed by immunoblot analysis utilizing antibodies against CDK5 (anti-CDK5 (268-283); Calbiochem #219449) and p35 (Santa Cruz #sc820). The CDK5/GST-p25 complex was purified by glutathione affinity chromatography.
Compounds were tested for their ability to inhibit the kinase activity of recombinant baculoviral CDK5/GST-p25 using an enzyme-linked immunosorbent assay (ELISA) with time-resolved fluorescence (TRF) readout. Briefly, each 384-well FluoroNunc Maxisorp plate (Cat # 460372) plate was coated with 50 μl/well of 50 μg/ml substrate solution (recombinant GST-Rb(773-928)) in Tris-buffered saline (TBS). The CDK5/GST-p25 assay mixture (total volume=50 μl/well) consisting of 20 mM HEPES (pH 7.2), 10 μM ATP, 10 mM MgCl2, 5 mM EGTA, 25 mM β-glycerophosphate, 0.05% BSA, 2.5% DMSO, and various concentrations of test compound were then added to the assay plate. Enzyme (2 ng/ml CDK5/GST-p25) was added and the reaction was allowed to proceed at 37° C. for 20 minutes. Detection of the phosphorylated product was performed by adding 50 μl/well of phospho-Rb (Ser-780) antibody (Cell Signaling # 9307) diluted 1:10,000 in antibody dilution buffer (0.1% BSA in TBST). After 1-hour incubation at 37° C., 50 μl/well of Eu-Nl labelled anti-rabbit antibody (Wallac # AD0105; 1:50,000 in antibody dilution buffer) was added. Incubation at 37° C. then proceeded for 1 hour, followed by addition of 50 μl enhancement solution (Wallac #1244-105). The plate was gently agitated and after a few minutes, the fluorescence of the resulting solution was measured using a Multilabel Reader (Victor2 Model # 1420-018 or Envision Model # 2100). Inhibition data were analyzed using ActivityBase and IC50 curves were generated using XLFit 3.0.5.

His6-GSK-3β = target: T2, His6-GSK-3β (Homo sapiens, UniProt P49841); assay: Inhibition of His6-GSK-3β kinase activity (ELISA-based format, time-resolved fluorescence readout); format: biochemical; details: for IC50: read-out: GSK3β IC50
T2 construct: made in house; host or cells: Sf21 insect cells (baculovirus)
T2 sequence (P49841 2-419): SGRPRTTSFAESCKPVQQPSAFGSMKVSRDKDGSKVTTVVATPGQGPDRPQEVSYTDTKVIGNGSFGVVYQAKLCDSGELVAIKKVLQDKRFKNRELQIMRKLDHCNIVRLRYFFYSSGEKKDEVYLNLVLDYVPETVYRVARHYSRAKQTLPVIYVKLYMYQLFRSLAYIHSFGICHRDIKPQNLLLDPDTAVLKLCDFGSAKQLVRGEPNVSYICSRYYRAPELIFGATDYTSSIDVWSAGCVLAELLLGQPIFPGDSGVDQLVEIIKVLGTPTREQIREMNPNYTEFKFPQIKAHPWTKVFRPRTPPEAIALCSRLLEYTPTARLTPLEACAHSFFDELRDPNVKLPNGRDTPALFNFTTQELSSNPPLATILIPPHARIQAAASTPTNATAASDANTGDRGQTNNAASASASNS
Source text: Full-length GSK-3β was amplified from a sequence-verified I.M.A.G.E. EST acquired from Research Genetics (Invitrogen, Clone ID# CSODB003YJ02). The final sequence-verified cDNA contained the coding region for a NH2-terminal tag, which encoded for 6 histidines and then eight vector-encoded amino acids prior to the start of GSK3β, which contained by # 43-1342 of Genbank Accession # NM_002093, encoding amino acids #2-419. The predicted molecular weight of the tagged, 435 amino acid, full-length protein is 48.5 kDa. The major structural element of this protein is the kinase domain, which is from amino acids #56-340. Recombinant baculoviral DNA was prepared by transposition in E. coli (BAC-TO-BAC system: Invitrogen) and the virus generated and amplified in Sf21 insect cells. A suspension culture of Sf21 cells was infected at an MOI of 0.7 and cell density of 1.5×10^6 cells/mL in Excell 420 serum-free media (JRH BioScience) and harvested 65 h after infection. The 100,000×g supernatant solution was used for purification. Expression was confirmed by running samples on SDS-PAGE, followed by immunoblot analysis utilizing both a Penta-HIS antibody (Qiagen #34660) and a GSK-3α/GSK-3β antibody (Calbiochem #368662, data not shown). The His6-tagged protein was purified to in one step by Ni-NTA affinity chromatography.
Inhibitory effects of compounds on baculoviral GSK-3β kinase activity were evaluated using an ELISA-based format in a 384-well FluoroNunc Maxisorp plate (Cat # 460372) with a time-resolved fluorescence readout. Briefly, each plate was coated with 50 μl/well of 20 μg/ml substrate solution (recombinant GST-Rb) in Tris-buffered saline (TBS). The GSK-3β assay mixture (total volume=50 μl/well) consisting of 50 mM HEPES (pH 7.2), 20 μM ATP, 10 mM MgCl2, 5 mM EGTA, 25 mM β-glycerophosphate, 0.05% BSA, 2.5% DMSO, and various concentrations of test compound were then added to the assay plate. Enzyme (200 ng/ml His6-GSK-3β) was then added and the reaction was allowed to proceed at 37° C. for 30 minutes. Detection of the phosphorylated product was performed by adding 50 μl/well of phospho-Rb (Ser-780) antibody (Cell Signaling # 9307) diluted 1:10,000 in antibody dilution buffer (0.1% BSA in TBST). After 1-hour incubation at 37° C., 50 μl/well of Eu-N1 labelled anti-rabbit antibody (Wallac # AD0105; 1:50,000 in antibody dilution buffer) was added. Incubation at 37° C. then proceeded for 1 hour, followed by addition of 50 μl enhancement solution (Wallac #1244-105). The plate was gently agitated and after a few minutes, the fluorescence of the resulting solution was measured using a Multilabel Reader (Victor2 Model # 1420-018 or Envision Model 2100). Inhibition data were analyzed using ActivityBase and IC50 curves were generated using XLFit 3.0.5.

SMILES | IC50 (CDK5/GST-p25; class symbols) [µM] | IC50 (His6-GSK-3β; class symbols) [µM] | IC50 (CDK5/GST-p25; numeric bounds) [µM] | IC50 (His6-GSK-3β; numeric bounds) [µM] | GSK3β % @10 μM (His6-GSK-3β; @10 μM) [% @10 μM]
CCCn1cc2c(C3C(=O)Nc4ccc(Br)cc43)nc(NCCCNC)nc2n1 (centres unmarked) [Example 201, 5-Bromo-3-[6-(3-methylamino-propylamino)-2-propyl-2H-pyrazolo [3,4-d]pyrimidin-4-yl]-1,3-dihydro-indol-2-one hydrochloride] | < 0.3 | < 0.3 |  |  | 
CNCCCn1cc2c(C3C(=O)Nc4ccc(Br)cc43)ncnc2n1 (centres unmarked) [Example 90, 3-[2-(3-methylamino-propyl)-2H-pyrazolo[3,4-d]pyrimidin-4-yl]-5-bromo-1,3-dihydro-indol-2-one] | < 0.3 | 0.3 to 3 |  |  | 
CCOCCn1cc2c(C3C(=O)Nc4ccc(Cl)cc43)nc(NCc3cccnc3)nc2n1 (centres unmarked) [Example 213, 5-Chloro-3-{2-(2-ethoxy-ethyl)-6[(pyridin-3-ylmethyl)-amino]-2H-pyrazolo[3,4-d]pyrimidin-4-yl}-1,3-dihydro-indol-2-one] | < 0.3 | < 0.3 |  |  | 
N#Cc1ccc2c(c1)C(c1nc(NCCc3ccccc3)nc3nn(C4CCCC4)cc13)C(=O)N2 (centres unmarked) [Example 134, 3-(2-cyclopentyl-6-2-phenethylamino-2H-pyrazolo [3,4-d]pyrimidin-4-yl)-2-oxo-2,3-dihydro-1H-indole-5-carbonitrile] |  | < 0.3 | > 3 |  | 
CCCOCCNc1nc2c(c(C3C(=O)Nc4ccc(Br)cc43)n1)CCC2 (centres unmarked) [Example 333, 5-Bromo-3-[2-(2-propoxy-ethylamino)-6,7-dihydro-5H-cyclopentapyrimidin-4-yl]-1,3-dihydro-indol-2-one] | > 10 | > 10 |  |  | 
N#Cc1ccc2c(c1)C(c1nc(Nc3cccnc3)nc3c1CCC3)C(=O)N2 (centres unmarked) [Example 350, 2-Oxo-3-[2-(pyridin-3-ylamino)-6,7-dihydro-5H-cyclopentapyrimidin-4-yl]-2,3-dihydro-1H-indole-5-carbonitrile] |  | 0.3 to 3 | > 3 |  | 
O=C1Nc2ccc(F)cc2C1c1nc(NCc2ccccn2)nc2c1CCC2 (centres unmarked) [Example 322, 5-Fluoro-3-{2-[(pyridin-2-ylmethyl)-amino]-6,7-dihydro-5H-cyclopentapyrimidin-4-yl}-1,3-dihydro-indol-2-one] |  | > 10 | > 3 |  | 

Other lines, results leading:

IC50 (CDK5/GST-p25; class symbols) [µM] | IC50 (His6-GSK-3β; class symbols) [µM] | IC50 (CDK5/GST-p25; numeric bounds) [µM] | IC50 (His6-GSK-3β; numeric bounds) [µM] | GSK3β % @10 μM (His6-GSK-3β; @10 μM) [% @10 μM] | SMILES
< 0.3 | < 0.3 |  |  |  | Cn1cc2c(C3C(=O)Nc4ccc(Br)cc43)nc(NCc3ccncc3)nc2n1 (centres unmarked) [Example 302, 5-Bromo-3-{2-methyl-6-[(pyridin-4-ylmethyl)-amino]-2H-pyrazolo[3,4-d]pyrimidin-4-yl}-1,3-dihydro-indol-2-one]
 |  | > 3 | > 3 |  | CN(C)CCCNc1nc2c(c(C3C(=O)Nc4ccc(Br)cc43)n1)CCC2 (centres unmarked) [Example 335, 5-Bromo-3-[2-(3-dimethylamino-propylamino)-6,7-dihydro-5H-cyclopentapyrimidin-4-yl]-1,3-dihydro-indol-2-one]
> 10 | > 10 |  |  |  | O=C1Nc2ccc(Cl)cc2C1c1nc(Cl)nc2c1CCC2 (centres unmarked) [Example 316, 5-Chloro-3-(2-chloro-6,7-dihydro-5H-cyclopentapyrimidin-4-yl)-1,3-dihydro-inodol-2-one]
0.3 to 3 |  |  |  | 69 | CCOCCNc1nc2c(c(C3C(=O)Nc4ccc(C#N)cc43)n1)CCC2 (centres unmarked) [Example 344, 3-[2-(2-Ethoxy-ethylamino)-6,7-dihydro-5H-cyclopentapyrimidin-4-yl]-2-oxo-2,3-dihydro-1H-indole-5-carbonitrile]
> 10 |  |  | > 3 |  | O=C1Nc2ccc(Br)cc2C1c1nc(Cl)nc2nn(C3CCCC3)cc12 (centres unmarked) [Example 182, 5-Bromo-3-(6-chloro-2-cyclopentyl-2-H-pyrazolo[3,4-d]pyrimidin-4-yl)-1,3-dihydro-indol-2-one]
 |  | > 3 | > 3 |  | O=C1Nc2ccc(Cl)cc2C1c1nc(NCCN2CCOCC2)nc2c1CCC2 (centres unmarked) [Example 324, 5-Chloro-3-[2-(2-morpholin-4-yl-ethylamino)-6,7-dihydro-5H-cyclopentapyrimidin-4-yl]-1,3-dihydro-indol-2-one]

— patent US8354414B2, “Substituted bicyclic pyrimidines” (Cephalon, Inc, priority 2006, dated 2013)
